# Measured values taken from US20040097421A1 (priority 2000, published 2004).
# Structures can show the parent of a compound that is named as a salt. Where two headings read alike, the source gives them in different places.
# Assays:
# sarcoma 45 = details: rats; cited from earlier work
# [1] = system: Adenocarcinoma tumor cell system; assay: Cytotoxic activity in different tumor models, adenocarcinoma; format: cell-based, human; details: Number 5
# [2] = system: Breast cancer tumor cell system; assay: Cytotoxic activity in different tumor models, breast cancer; format: cell-based, human; details: Number 4
# [3] = system: 27 PHTC samples from 9 patients with hematological and 18 patients with solid tumours; assay: Circumvention of melphalan resistance, FMCA classification of PHTC samples; format: cell-based, human; details: 4 μM
# [4] = system: NSC Lung cancer tumor cell system; assay: Cytotoxic activity in different tumor models, NSC lung cancer; format: cell-based, human; details: Number 8
# [5] = system: hematological tumors, primary cultures of human tumor cells from patients (PHTC); format: cell-based
# [6] = system: solid tumors, primary cultures of human tumor cells from patients (PHTC); format: cell-based
# [7] = system: Ovarian carcinoma tumor cell system; assay: Cytotoxic activity in different tumor models, ovarian carcinoma; format: cell-based, human; details: Number 8
# [8] = system: solid tumour types, cell lines and primary cultures of human tumour cells from patients; assay: Tumour type specific spectrum of antitumour activity, solid tumour types; format: cell-based; details: for Activity in the listed diagnoses of Table 5: 4.0 μM; for Activity against solid tumour types (activity = at least 50% reduction in tumour cell survival): cell lines and PHTC
# [9] = system: Prostate cancer tumor cell system; assay: Cytotoxic activity in different tumor models, prostate cancer; format: cell-based, human; details: Number 1
# [10] = system: hematological fresh human tumour specimens (PHTC); format: cell-based
# [11] = system: solid fresh human tumour specimens (PHTC); format: cell-based
# [12] = system: panel of ten human tumour cell lines; format: cell-based
# [13] = system: 8226S (myeloma RPMI 8226); assay: cells; format: cell-based, human; details: read-out: IC50 (μM), 8226S
# [14] = system: CEM/S (leukemia CCRF-CEM); assay: cells; format: cell-based; details: Homo sapiens, 72 h, read-out: IC50 (μM), CEM/S
# [15] = system: Corpus cancer tumor cell system; assay: Cytotoxic activity in different tumor models, corpus cancer; format: cell-based, human; details: Number 4
# [16] = system: NCI-H611 (non-small cell lung cancer); assay: cells; format: cell-based; details: Homo sapiens, read-out: IC50 (μM), NCI-H611
# [17] = system: U1906L (small cell lung cancer); assay: cells; format: cell-based; details: Homo sapiens, read-out: IC50 (μM), U1906L
# [18] = system: U-1752 (non-small cell lung cancer); assay: cells; format: cell-based; details: Homo sapiens, read-out: IC50 (μM), U-1752
# [19] = system: U-1568 (non-small cell lung cancer); assay: cells; format: cell-based; details: Homo sapiens, read-out: IC50 (μM), U-1568
# [20] = system: U1690 (small cell lung cancer); assay: cells; format: cell-based; details: Homo sapiens, read-out: IC50 (μM), U1690
# [21] = system: U1285 (small cell lung cancer); assay: cells; format: cell-based; details: Homo sapiens, read-out: IC50 (μM), U1285
# [22] = system: U-1906E (small cell lung cancer); assay: cells; format: cell-based; details: Homo sapiens, read-out: IC50 (μM), U-1906E
# [23] = system: fresh human tumour specimens (fourteen hematological, thirteen solid); assay: FMCA, IC50 comparison in 27 fresh human tumour specimens; format: cell-based; details: 27 human tumour samples, 82 to 0.131 μM
# [24] = system: H69AR (doxorubicin resistance subline); format: cell-based, human
# RPMI 8322 melanoma cells = details: cited from earlier work
# [25] = system: U937vcr (vincristine resistance subline); format: cell-based, human
# [26] = system: mitochondria from rat liver homogenates and Jensen sarcoma cells; details: cited from earlier work
smiles,measurement,setting,value
CCOC(=O)[C@H](CC(C)C)NC(=O)[C@H](Cc1ccc(N(CCCl)CCCl)cc1)NC(C)=O [asaley],Sarcoma 45 growth,sarcoma 45,inhibited
"CC(C)OC(=O)[C@H](Cc1ccc(F)cc1)NC(=O)[C@@H](N)Cc1ccc(N(CCCl)CCCl)cc1.Cl [JV28, L-Melphalanyl-L-p-fluorophenylalanine isopropyl ester hydrochloride]",Median response at 4.0 μM >50% reduction in tumor cell survival,[1],Yes
same,Median response at 4.0 μM >50% reduction in tumor cell survival,[2],Yes
same,Number of samples classified EDR (extreme drug resistance),[3],1
same,Number of samples classified IDR (intermediate drug resistance),[3],2
same,Samples classified EDR (%),[3],6%
same,Median response at 4.0 μM >50% reduction in tumor cell survival,[4],Yes
same,Activity against hematological PHTC samples compared to melphalan and sarcolysine,[5],more active
same,"Activity against solid tumor samples compared to melphalan, sarcolysine and P2",[6],more active
same,Median response at 4.0 μM >50% reduction in tumor cell survival,[7],Yes
same,Activity in the listed diagnoses of Table 5,[8],active in most of these diagnoses
same,Activity against solid tumour types (activity = at least 50% reduction in tumour cell survival),[8],showed activity against several types of solid tumours
same,Median response at 4.0 μM >50% reduction in tumor cell survival,[9],Yes
"CCC1=C[C@@H]2CN(C1)Cc1c([nH]c3ccccc13)[C@@](C(=O)OC)(c1cc3c(cc1OC)N(C)[C@H]1[C@@](O)(C(=O)OC)[C@H](OC(C)=O)[C@]4(CC)C=CCN5CC[C@]31[C@@H]54)C2 [Vinorelbine, vinorelbine]","Tumor cell survival index %, Hematological (n = 42)",[10],50%
same,"Tumor cell survival index %, Solid (n = 22)",[11],73%
"CC[C@]1(O)C[C@H]2CN(CCc3c([nH]c4ccccc34)[C@@](C(=O)OC)(c3cc4c(cc3OC)N(C=O)[C@H]3[C@@](O)(C(=O)OC)[C@H](OC(C)=O)[C@]5(CC)C=CCN6CC[C@]43[C@@H]65)C2)C1 [Vincristine, vincristine]","IC50 (μM), MEAN",[12],30.1 µM
same,IC50,"[13]; Homo sapiens, RPMI-8226, 72 h",0.01 µM
same,"Tumor cell survival index %, Hematological (n = 42)",[10],39%
same,"Tumor cell survival index %, Solid (n = 22)",[11],93%
same,IC50,[14],0.08 µM
"CCOC(=O)[C@H](Cc1ccccc1)NC(=O)[C@@H](N)Cc1ccc(N(CCCl)CCCl)cc1.Cl [JV22, L-Melphalanyl-L-phenylalanine ethyl ester hydrochloride]","IC50 (μM), MEAN",[12],0.48 µM
"CCOC(=O)[C@H](Cc1ccc(F)cc1)NC(=O)[C@H](Cc1ccc(N(CCCl)CCCl)cc1)NC(=O)[C@@H]1CCCN1.Cl [Example J3, L-Prolinyl-L-melphalanyl-L-p-fluorophenylalanine ethyl ester hydrochloride]",Median response at 4.0 μM >50% reduction in tumor cell survival,[1],Yes
same,Median response at 4.0 μM >50% reduction in tumor cell survival,[2],Yes
same,Number of samples classified EDR (extreme drug resistance),[3],0 (0%)
same,Number of samples classified IDR (intermediate drug resistance),[3],4
same,Samples classified EDR (%),[3],0 (0%)
same,Median response at 4.0 μM >50% reduction in tumor cell survival,[4],Yes
same,Activity against hematological PHTC samples compared to melphalan and sarcolysine,[5],more active
same,"Tumor cell survival index (%), Hematological tumors n = 7-11",[5],7%
same,Median response at 4.0 μM >50% reduction in tumor cell survival,[15],Yes
same,"Activity against solid tumor samples compared to melphalan, sarcolysine and P2",[6],more active
same,Median response at 4.0 μM >50% reduction in tumor cell survival,[7],Yes
same,Activity in the listed diagnoses of Table 5,[8],active
same,Activity against solid tumour types (activity = at least 50% reduction in tumour cell survival),[8],showed activity against several types of solid tumours
same,Median response at 4.0 μM >50% reduction in tumor cell survival,[9],Yes
"CC(=O)O[C@@]12CO[C@@H]1C[C@H](O)[C@@]1(C)C(=O)[C@H](O)C3=C(C)[C@@H](OC(=O)[C@H](O)[C@@H](NC(=O)OC(C)(C)C)c4ccccc4)C[C@@](O)([C@@H](OC(=O)c4ccccc4)[C@H]21)C3(C)C [Docetaxel, docetaxel]",IC50,[16],1.1 µM
same,IC50,[17],0.1 µM
same,IC50,[18],0.46 µM
same,IC50,[19],5.94 µM
same,IC50,[20],7.7 µM
same,IC50,[21],0.1 µM
same,"Tumor cell survival index %, Solid (n = 22)",[11],67%
same,IC50,[22],0.1 µM
"CCOC(=O)[C@H](Cc1ccc(N(CCCl)CCCl)cc1)NC(=O)[C@@H](N)Cc1ccc(N(CCCl)CCCl)cc1 [JV27, L-Melphalanyl-L-melphalan ethyl ester hydrochloride]",IC50,[13],1.01 µM
"COc1cccc2c1C(=O)c1c(O)c3c(c(O)c1C2=O)C[C@@](O)(C(=O)CO)C[C@@H]3O[C@H]1C[C@H](N)[C@H](O)[C@H](C)O1 [Doxorubicin, doxorubicin]","IC50 (μM), MEAN",[12],3.51 µM
same,IC50,[16],≥ 183 µM
same,IC50,"[13]; Homo sapiens, RPMI-8226, 72 h",0.13 µM
same,"Tumor cell survival index %, Hematological (n = 42)",[10],29%
same,IC50,[17],0.92 µM
same,IC50,[18],0.42 µM
same,IC50,[19],≥ 183 µM
same,IC50,[20],2.21 µM
same,IC50,[21],0.52 µM
same,"Tumor cell survival index %, Solid (n = 22)",[11],97%
same,IC50,[22],0.44 µM
same,IC50,[14],0.18 µM
"CCOC(=O)[C@H](Cc1ccc(F)cc1)NC(=O)[C@@H](N)Cc1ccc(N(CCCl)CCCl)cc1.Cl [Example J1, L-Melphalanyl-L-p-fluorophenylalanine ethyl ester hydrochloride]",Median response at 4.0 μM >50% reduction in tumor cell survival,[1],Yes
same,Comparison of IC50s (FIG. 2),[23],in all cases was more active than P2
same,IC50,[24],0.9 µM
same,Median response at 4.0 μM >50% reduction in tumor cell survival,[2],Yes
same,Number of samples classified EDR (extreme drug resistance),[3],1
same,Number of samples classified IDR (intermediate drug resistance),[3],3
same,Samples classified EDR (%),[3],6%
same,Median response at 4.0 μM >50% reduction in tumor cell survival,[4],Yes
same,Median response at 4.0 μM >50% reduction in tumor cell survival,[15],No
same,Median response at 4.0 μM >50% reduction in tumor cell survival,[7],Yes
same,Activity in the listed diagnoses of Table 5,[8],active in most of these diagnoses
same,Activity against solid tumour types (activity = at least 50% reduction in tumour cell survival),[8],showed activity against several types of solid tumours
Nc1ccn([C@@H]2O[C@H](CO)[C@@H](O)[C@@H]2O)c(=O)n1 [AraC],"Tumor cell survival index %, Solid (n = 22)",[11],102%
"N.N.[Cl][Pt][Cl] [Cisplatin, cisplatin]","IC50 (μM), MEAN",[12],18.0 µM
"CCOC(=O)[C@H](Cc1ccc(F)cc1)NC(=O)[C@H](Cc1cccc(N(CCCl)CCCl)c1)NC(=O)[C@@H]1CCCN1 [Example P2, L-prolyl-m-L-sarcolysyl-p-L-fluorophenylalanine ethyl ester hydrochloride]",Median response at 4.0 μM >50% reduction in tumor cell survival,[1],No
same,Comparison of IC50s (FIG. 2),[23],more active than melphalan
same,Median response at 4.0 μM >50% reduction in tumor cell survival,[2],No
same,Number of samples classified EDR (extreme drug resistance),[3],1
same,Number of samples classified IDR (intermediate drug resistance),[3],4
same,Samples classified EDR (%),[3],5%
same,Median response at 4.0 μM >50% reduction in tumor cell survival,[4],No
same,"Tumor cell survival index (%), Hematological tumors n = 7-11",[5],7%
same,Median response at 4.0 μM >50% reduction in tumor cell survival,[15],No
same,Toxicity to RPMI 8322 melanoma cells compared with the other PTC peptides,RPMI 8322 melanoma cells,more toxic
same,Median response at 4.0 μM >50% reduction in tumor cell survival,[7],No
same,Activity in the listed diagnoses of Table 5,[8],inactive
same,IC50,[25],1.77 µM
same,Median response at 4.0 μM >50% reduction in tumor cell survival,[9],No
"CCOC(=O)[C@H](Cc1ccc(O)cc1)NC(=O)[C@@H](N)Cc1ccc(N(CCCl)CCCl)cc1.Cl [JV24, L-Melphalanyl-L-tyrosine ethyl ester hydrochloride]","IC50 (μM), MEAN",[12],1.05 µM
"CC(C)[C@H](NC(=O)[C@@H](N)Cc1ccc(N(CCCl)CCCl)cc1)C(=O)O [salin, L-melphalanyl-L-valine]",Oxidative phosphorylation in mitochondria,[26],disrupted
"CCOC(=O)[C@H](Cc1ccc(O)cc1)NC(=O)[C@H](Cc1ccc(N(CCCl)CCCl)cc1)NC(C)=O [astyron, N-acetyl-L-melphalanyl-L-tyrosine ethyl ester]",Sarcoma 45 growth,sarcoma 45,inhibited
"COc1cc([C@@H]2c3cc4c(cc3[C@@H](O[C@@H]3O[C@@H]5CO[C@@H](C)O[C@H]5[C@H](O)[C@H]3O)[C@H]3COC(=O)[C@H]23)OCO4)cc(OC)c1O [Etoposide, etoposide]","Tumor cell survival index %, Hematological (n = 42)",[10],47%
same,"Tumor cell survival index %, Solid (n = 22)",[11],81%
